Source: publication PMC8229129, “Local Colonic Administration of a Serine Protease Inhibitor Improves Post-Inflammatory Visceral Hypersensitivity in Rats” (Pharmaceutics, 2021)

Tests used:
[1] = molecular target: chymotrypsin (Bos taurus, UniProt P00766); test: Inhibition of chymotrypsin by UAMC-00050 (IC50); format: biochemical; settings: in vitro
Description: Here, the potency of UAMC-00050 to inhibit two other serine proteases, chymotrypsin and pancreatic elastase, with specificity was determined.

[2] = tested on: chymotrypsin-like activity in colonic tissue; test: Chymotrypsin-like activity in colonic tissue after intracolonic administration (Suc-Ala-Ala-Pro-Phe-AMC); format: in vivo, Sprague–Dawley rats; settings: post-colitis rats, 5 mg/kg intracolonic, colon harvested 90 min after administration, median (IQR), n = 12; vehicle 1.54 (1.06), p < 0.05
Description: The serine protease inhibitor UAMC-00050 (0.1–1.0–2.5–5.0 mg/kg, dissolved in a volume of 200 µL) or its vehicle (5% DMSO in H2O) was delivered colonically using a flexible catheter (18 G, length 4.5 cm) under short-lasting isoflurane anesthesia (5.0% induction, 1.5% maintenance). To prevent expulsion of the enema, animals were held in a Trendelenburg position for 90 s. Doses for intracolonic administration were based on the doses known to be effective via an i.p. administration and adapted afterwards based on preliminary results.
Trypsin-like, chymotrypsin-like, cathepsin G, elastase-like, and kallikrein activities were determined in colon tissue and fecal samples to profile serine protease activity. […]
Boc-Gln-Ala-Arg-AMC (75 µM) and n-Tosyl-Gly-Pro-Arg-AMC (100 µM) in 50 mM Tris-HCl pH 8.0 containing 120 mM NaCl were used to measure the trypsin-like activity. […] The fluorescence was measured during 20 min at 37 °C on a Tecan Infinite F200 Pro microtiter plate reader. The other activities were assessed in a similar assay, using the substrates mentioned below. Chymotrypsin-like and kallikrein activity were measured with Suc-Ala-Ala-Pro-Phe-AMC (0.45 mM) and H-Pro-Phe-Arg-AMC (0.45 mM), respectively. Elastase-like activity was measured using two assays, one using Suc-Ala-Ala-Pro-Val-AMC as a substrate and the other using Suc-Ala-Ala-Ala-AMC (both 0.45 mM). […]

CC(=O)Nc1ccc(OP(=O)(Oc2ccc(NC(C)=O)cc2)C(Cc2ccc(N=C(N)N)cc2)NC(=O)OCc2ccccc2)cc1.Cl (centres unmarked) [UAMC-00050]
IC50 [1]: > 10 µM
Chymotrypsin-like activity in colonic tissue [2]: 0.84 (0.57) U/g
